{
  "source": "paper PMC10002375",
  "about": "“Synthesis of 3-(2-Alkylthio-4-chloro-5-methylbenzenesulfonyl)-2-(1-phenyl-3-arylprop-2-enylideneamino)guanidine Derivatives with Pro-Apoptotic Activity against Cancer Cells” (International Journal of Molecular Sciences, 2023)",
  "key": {"HeLa cells [1]": {"test_system": "HeLa cells", "experiment": "Cell morphology by light microscopy, HeLa", "format": "cell-based, human", "details": "10 and 25 μM, 72 h", "protocol": "(§1) The evaluation of changes in cell morphology has been performed after incubation with compounds 24 and 31 for 72 h using light microscopy.\n(§2) The HeLa, MCF-7, and HCT-116 cells were seeded on 24-well plates (5 × 10^4/per well) in 1 mL of medium for 24 h. After that time, cells were treated with 24 and 31 for next 72 h. Cells were treated with 10 µM, 25 µM of 24, or 25 µM of 31. As a control, non-treated cells were used. Morphology of cells was observed after 72 h using light microscope Olympus IX83."}, "HeLa cells [2]": {"test_system": "HeLa cells", "experiment": "Cell cycle distribution by flow cytometry, HeLa", "format": "cell-based, human", "details": "72 h; for cells in sub-G1 phase: control 5.08%", "protocol": "(§3) The cell cycle distribution was measured by flow cytometry analysis after incubation of MCF-7, HeLa, and HCT-116 with compounds 24 and 31 for 72 h."}, "HCT-116 cells [3]": {"test_system": "HCT-116 cells", "experiment": "Phosphatidylserine translocation (Annexin V-FITC/PI), HCT-116", "format": "cell-based, human", "source_text": "One of the early indicators of apoptosis is the exposure of phosphatidylserine residues on the cell’s surface. Annexin V has a high affinity to phosphatidylserine and, as a conjugate to fluorescein isothiocyante (FITC), is widely used for detection of early apoptotic cells using flow cytometry. Detection of late-apoptotic or necrotic cells is achieved by using propidium iodide (PI) stain. Based on the obtained fluorescence, four subpopulations were found: PI-low/FITC-low (live cells), PI-high/FITC-low (necrotic cells), PI-low/FITC-high (early apoptotic cells), and PI-high/FITC-high (late apoptotic cells).\nAnalysis was performed using FITC-conjugated annexin-V (Annexin V-FITC Apoptosis Kit I, BD Biosciences, San Jose, CA, USA) according to the manufacturer’s instructions (BD Biosciences) as described previously. HeLa, MCF-7, and HCT-116, after seeding to 24-well plates (5 × 10^4/per well) and 24 h incubation, were treated for 72 h with 24 or 31 (10/25 µM or 25 µM concentration respectively). Following treatment, cells were washed in PBS, centrifuged, and then resuspended in a binding buffer. Afterward, the cells were incubated for 15 min at 37 °C with FITC-conjugated annexin-V and propidium iodide. The samples were then analyzed using a LSR II flow cytometer (BD Biosciences) using 530 ± 25 nm (Annexin V-FITC) and 575 ± 26 nm (PI).\nThe subpopulations were identified according to their fluorescence: PI-low/FITC-low (live cells), PI-high/FITC-low (necrotic cells), PI-low/FITC-high (early apoptotic cells), and PI-high/FITC-high (late apoptotic cells)."}, "HCT-116 cells [4]": {"test_system": "HCT-116 cells", "experiment": "Cell morphology by light microscopy, HCT-116", "format": "cell-based, human", "details": "HCT-116, 10 and 25 μM, 72 h", "protocol": "as §1, §2"}, "HCT-116 (colon cancer)": {"test_system": "HCT-116 (colon cancer)", "experiment": "MTT cell viability assay, HCT-116", "format": "cell-based, human", "protocol": "All chemicals, if not stated otherwise, were obtained from Sigma-Aldrich (St. Louis, MO, USA). The MCF-7 cell line was purchased from Cell Lines Services (Eppelheim, Germany), the HeLa and HCT-116 cell lines were obtained from the Department of Microbiology, Tumor and Cell Biology, Karolinska Institute (Stockholm, Sweden). Cells were cultured in Dulbecco’s modified Eagle’s medium (DMEM) supplemented with 10% fetal bovine serum, 2 mM glutamine, 100 units/mL penicillin, and 100 μg/mL streptomycin. Cultures were maintained in a humidified atmosphere with 5% CO2 at 37 °C in an incubator (HeraCell, Heraeus, Langenselbold, Germany).\n(§4) Cell viability was determined using the MTT (3-(4,5-dimethylthiazol-2-yl)-2,5-diphenyl-tetrazoliumbromide) assay. Stock solutions of the studied compounds were prepared in 100% DMSO. […] Cells were seeded in 96-well plates at a density of 5 × 10^3 cells/well and treated for 72 h with the examined compounds in the concentration range 1–100 μM (1, 10, 25, 50, and 100 μM). Following treatment, MTT (0.5 mg/mL) was added to the medium and cells were further incubated for 2 h at 37 °C. Cells were lysed with DMSO and the absorbance of the formazan solution was measured at 550 nm with a plate reader (1420 multilabel counter, Victor, Jügesheim, Germany). […] The experiment was performed in triplicate. Values are expressed as the mean ± SD of at least three independent experiments."}, "HCT-116 cells [5]": {"test_system": "HCT-116 cells", "experiment": "Mitochondrial membrane potential (JC-1, flow cytometry), HCT-116", "format": "cell-based, human", "details": "HCT-116, 72 h, 24 at 10 or 25 μM, 31 at 25 μM", "source_text": "A decrease in mitochondrial potential is one of the earliest hallmarks of apoptosis. A common method for indication of cells with high and low Δψm is flow cytometry combined with specific fluorescent probes, such as JC-1 (5,5′,6,6′-tetrachloro-1,1′,3,3′-tetraethylbenzimidazolylcarbocyanine iodide). JC-1 accumulates in mitochondria and forms complexes (J aggregates) with red fluorescence in healthy cells with a normal ΔΨm, whereas in apoptotic cells with a low ΔΨm exists as a monomer with green fluorescence.\nAnalyzed cells were seeded into wells of a 24-well plate at a density of 5 × 10^4 cells in 1000 µL, incubated overnight, and then the medium was exchanged for dilutions of reagents 24 and 31. Before the end of 72 h of incubation, MitoProbe JC-1 (25 µM) was added into each plate well. Carbonyl cyanide m-chlorophenylhydrazone CCCP (200 nM) as the mitochondrial oxidative phosphorylation uncoupler was added into the positive control 15 min before JC-1 was added. After 30 min of JC-1 staining, cells were washed with PBS and then trypsinized (Corning® 25-053CI). Cells suspended in PBS were analyzed by flow cytometry at λ excitation (ex) = 488 nm and λ emission (em) = 525/570 nm (LSR II BD Biosciences, San Jose, CA, USA)."}, "HaCaT cells": {"test_system": "HaCaT cells", "experiment": "MTT assay with non-cancerous HaCaT cell line", "format": "cell-based", "details": "Homo sapiens, HaCaT, 72 h", "protocol": "The important feature of new cytotoxic agents is their selective activity against cancer cells with a weak impact on the physiology of healthy cells. Determination of the selectivity of compounds 14–19 and 24–29 was done by MTT assay with the non-cancerous HaCaT cell line (Table 2). […] A similar effect was observed also for compound 26. […] Due to the excellent selectivity of compound 30 towards HCT-116 cells and at the same time high cytotoxicity towards this cell line (IC50 = 8 μM); derivative 30 may be a good hit compound for the search for chemotherapeutic agents for the treatment of colon cancer.\nas §4"}, "MCF-7 cells": {"test_system": "MCF-7 cells", "experiment": "Cell cycle distribution by flow cytometry, MCF-7", "format": "cell-based, human", "details": "for cells in sub-G1 phase: 72 h", "protocol": "as §3"}},
  "data": [
    {"smiles": "Cc1cc(S(=O)(=O)NC(N)=NN=C(C=Cc2ccccc2O)c2ccccc2)c(SCc2ccccc2Cl)cc1Cl", "note": "[Compound 24, 3-{4-chloro-2-[(2-chlorophenyl)methylthio]-5-methylbenzenesulfonyl}-2-[3-(2-hydroxyphenyl)-1-phenylprop-2-enylideneamino]guanidine]", "values": [
      {"measurement": "changes in cell morphology", "setting": "HeLa cells [1]", "value": "apoptotic-like changes, such as shrinkage of the cells or detachment from the surface"},
      {"measurement": "cells in sub-G1 phase", "setting": "HeLa cells [2]; 10 μM", "value": 7.45, "unit": "%"},
      {"measurement": "cells in sub-G1 phase", "setting": "HeLa cells [2]; 25 μM", "value": 18.07, "unit": "%"},
      {"measurement": "effect on cell cycle distribution", "setting": "HeLa cells [2]; 24 at 10 and 25 μM, 31 at 25 μM", "value": "significant increase in the cell distribution in the sub-G1 phase"},
      {"measurement": "induction of apoptosis (Annexin V-FITC/PI)", "setting": "HCT-116 cells [3]; HCT-116, 10 μM, 72 h", "value": "Induction of apoptosis"},
      {"measurement": "population of apoptotic cells (Annexin V-FITC/PI)", "setting": "HCT-116 cells [3]; HCT-116, 72 h, 24 at 10 or 25 μM, 31 at 25 μM", "value": "increased population of apoptotic cells"},
      {"measurement": "changes in cell morphology", "setting": "HCT-116 cells [4]", "value": "apoptotic-like changes, such as shrinkage of the cells or detachment from the surface"},
      {"measurement": "Selectivity Index HCT-116/HaCaT", "setting": "HCT-116 (colon cancer); HCT-116 versus HaCaT, from IC50 values", "value": 3.7},
      {"measurement": "IC50", "setting": "HCT-116 (colon cancer); Homo sapiens, HCT-116, MTT, 72 h", "value": "9 ± 0.5", "unit": "µM"},
      {"measurement": "change of mitochondrial membrane potential (ΔΨm)", "setting": "HCT-116 cells [5]", "value": "remarkable decrease in ΔΨm"},
      {"measurement": "IC50", "setting": "HaCaT cells", "value": "33 ± 2", "unit": "µM"},
      {"measurement": "cells in sub-G1 phase", "setting": "MCF-7 cells; MCF-7, 10 μM", "value": 5.22, "unit": "%"},
      {"measurement": "cells in sub-G1 phase", "setting": "MCF-7 cells; MCF-7, 25 μM", "value": 7.53, "unit": "%"},
      {"measurement": "effect on cell cycle distribution", "setting": "MCF-7 cells; MCF-7, 72 h, 24 at 10 and 25 μM, 31 at 25 μM", "value": "no significant effect on the cell cycle distribution"}
    ]}
  ]
}
